What was measured:
Test in all cases: relative viability (nuclei count vs DMSO), 5 days (fraction); higher = more cells survive
[1] = compound: Cc1ccc2nc(NCCN)c3ncc(C)n3c2c1 + O=C(CCCCCCC(=O)Nc1ccccc1)NO [Vorinostat] (partner 1 µM)
Outline: (§1)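 Lung cancer cell lines in 1536-well plates got either a single drug or a fixed anchor-drug dose together with five library-drug doses (not always all listed) in √10 steps, by pin tool, on the day after seeding. Nuclei were counted after 5 days, and relative viability is the treated-to-vehicle ratio of nuclei counts. Values are medians of duplicate plates.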

[2] = compound: Cc1ccc2nc(NCCN)c3ncc(C)n3c2c1 + CC(C)C[C@H](NC(=O)[C@H](Cc1ccccc1)NC(=O)c1cnccn1)B(O)O [Bortezomib] (partner 0.002 µM)
Outline: as §1

Salubrinal + AZD7762 = compound: O=C(/C=C/c1ccccc1)NC(NC(=S)Nc1cccc2cccnc12)C(Cl)(Cl)Cl [Salubrinal] + NC(=O)Nc1cc(-c2cccc(F)c2)sc1C(=O)N[C@H]1CCCNC1 [AZD7762] (partner 0.2 µM)
Outline: as §1

Salubrinal + Phenformin = compound: O=C(/C=C/c1ccccc1)NC(NC(=S)Nc1cccc2cccnc12)C(Cl)(Cl)Cl [Salubrinal] + N=C(N)NC(=N)NCCc1ccccc1 [Phenformin] (partner 250 µM)
Outline: as §1

Cell Line | relative viability ([1]; first compound 0.04 µM) | relative viability ([1]; first compound 0.1265 µM) | relative viability ([1]; first compound 0.4 µM) | relative viability ([1]; first compound 1.265 µM) | relative viability ([1]; first compound 4 µM) | relative viability ([2]; first compound 0.04 µM) | relative viability ([2]; first compound 0.1265 µM) | relative viability ([2]; first compound 0.4 µM) | relative viability ([2]; first compound 1.265 µM) | relative viability ([2]; first compound 4 µM) | relative viability (Salubrinal + AZD7762; first compound 0.08 µM) | relative viability (Salubrinal + AZD7762; first compound 0.253 µM) | relative viability (Salubrinal + AZD7762; first compound 0.8 µM) | relative viability (Salubrinal + AZD7762; first compound 2.53 µM) | relative viability (Salubrinal + AZD7762; first compound 8 µM) | relative viability (Salubrinal + Phenformin; first compound 0.08 µM) | relative viability (Salubrinal + Phenformin; first compound 0.253 µM) | relative viability (Salubrinal + Phenformin; first compound 0.8 µM) | relative viability (Salubrinal + Phenformin; first compound 2.53 µM) | relative viability (Salubrinal + Phenformin; first compound 8 µM)
NCI-H838 | 0.8 | 0.685 | 0.685 | 0.708 | 0.61 | 0.878 | 0.9 | 0.615 | 0.631 | 0.739 | 0.961 | 0.957 | 1.06 | 0.962 | 0.951 | 0.657 | 0.379 | 0.695 | 0.602 | 0.622
A-427 | 0.9 | 0.844 | 0.852 | 0.876 | 0.89 | 1.05 | 1.15 | 0.929 | 0.978 | 0.962 | 0.892 | 0.716 | 0.755 | 0.802 | 0.67 | 0.326 | 0.336 | 0.382 | 0.292 | 0.28
LCLC-97TM1 | 0.865 | 0.867 | 0.526 | 0.759 | 0.737 | 0.846 | 0.614 | 0.767 | 0.937 | 0.585 | 0.268 | 0.288 | 0.227 | 0.139 | 0.202 | 0.388 | 0.413 | 0.435 | 0.462 | 0.488
LCLC-103H | 0.859 | 0.821 | 0.686 | 0.697 | 0.751 | 1.15 | 1.23 | 0.944 | 1.2 | 1.04 | 0.856 | 0.699 | 0.806 | 0.815 | 0.701 | 0.388 | 0.282 | 0.318 | 0.38 | 0.308
PC-3 [JPC-3] | 0.825 | 0.752 | 0.709 | 0.774 | 0.734 | 0.863 | 0.893 | 0.723 | 0.842 | 0.707 | 0.833 | 0.67 | 0.923 | 0.928 | 0.671 | 0.471 | 0.448 | 0.529 | 0.475 | 0.467
BEN | 0.544 | 0.579 | 0.505 | 0.636 | 0.555 | 0.929 | 0.789 | 0.849 | 0.834 | 0.868 | 0.642 | 0.727 | 0.802 | 0.712 | 0.72 | 0.269 | 0.259 | 0.432 | 0.273 | 0.249
NCI-H1666 | 1.06 | 1.05 | 0.925 | 0.944 | 1.05 | 0.878 | 0.8 | 0.762 | 1.03 | 0.689 | 0.793 | 0.863 | 0.831 | 0.704 | 0.926 | 0.535 | 0.603 | 0.561 | 0.547 | 0.514
LC-2-ad | 0.724 | 0.689 | 0.652 | 0.69 | 0.689 | 1.06 | 0.978 | 1 | 1.02 | 0.81 | 0.946 | 0.832 | 0.89 | 0.823 | 0.647 | 0.65 | 0.609 | 0.744 | 0.621 | 0.596
ChaGo-K-1 | 0.751 | 0.832 | 0.771 | 0.657 | 0.766 | 1.01 | 1 | 1.01 | 0.973 | 0.607 | 0.978 | 0.694 | 1 | 0.886 | 0.707 | 0.506 | 0.461 | 0.535 | 0.455 | 0.45
NCI-H1975 | 0.733 | 0.711 | 0.753 | 0.708 | 0.582 | 0.363 | 0.384 | 0.428 | 0.375 | 0.407 | 0.691 | 0.611 | 0.853 | 0.744 | 0.601 | 0.465 | 0.359 | 0.434 | 0.427 | 0.375
NCI-H1993 | 0.797 | 0.776 | 0.727 | 0.856 | 0.649 | 1.21 | 1.07 | 0.921 | 1.11 | 0.875 | 0.909 | 0.744 | 0.871 |  | 0.612 | 0.464 | 0.545 | 0.506 | 0.503 | 0.509
RERF-LC-KJ | 0.749 | 0.773 | 0.713 | 0.861 | 0.712 | 1.19 | 0.968 | 1.11 | 1.07 | 0.983 | 1.05 | 0.917 | 1.1 | 0.999 | 0.885 | 0.442 | 0.39 | 0.414 | 0.408 | 0.413
NCI-H23 | 0.759 | 0.654 | 0.501 | 0.493 | 0.578 | 1.12 | 1.03 | 1.08 | 1.02 | 0.672 | 0.175 | 0.206 | 0.236 | 0.23 | 0.23 | 0.84 | 0.939 | 0.8 | 0.748 | 0.814
HCC-366 | 0.421 | 0.359 | 0.244 | 0.361 | 0.296 | 1.06 | 0.948 | 1.13 | 1.11 | 0.967 | 0.254 |  | 0.315 | 0.272 | 0.146 | 0.685 | 0.579 | 0.645 | 0.642 | 0.646
EMC-BAC-2 | 0.467 | 0.433 | 0.455 | 0.527 | 0.392 | 1.12 | 1.12 | 0.957 | 1.13 | 1.05 | 1.1 | 1.06 | 1.31 | 1.16 | 1.13 | 0.471 | 0.326 | 0.601 | 0.513 | 0.493
NCI-H2405 | 1.2 | 0.943 | 0.946 | 1.01 | 0.93 | 1.03 | 1.03 | 0.964 | 0.969 | 0.918 | 0.872 | 0.704 | 0.835 | 0.813 | 0.664 | 0.42 | 0.387 | 0.441 | 0.329 | 0.408
